Measurements taken from patent US6761911B2 (The United States of America as represented by the …, priority 1999, dated 2004).

Columns and labels:
E. coli = assay: Intraruminal sodium chlorate in cattle: ruminal and fecal E. coli viable cell counts on MacConkey agar; type: in vivo; settings: for Mean ± SD (n = 2) fecal EC concentration / Mean ± SD (n = 2) ruminal EC concentration: treated (30 mM sodium chlorate intraruminally)
Procedure: Concentrations of E. coli in the ruminal contents and in feces collected from the test animals were determined by viable cell counts on MacConkey agar plates.

culturable anaerobes = assay: Most probable number of culturable anaerobes in ruminal fluid incubated with chlorate; type: cell-based; settings: 5 mM sodium chlorate, anaerobic, 39° C.

[O-][Cl+2]([O-])O [chlorate, sodium chlorate]
decrease in ruminal E. coli concentration (E. coli; fasted and non-fasted, 30 mM sodium chlorate, after 24 hours (compared with 10 hours)): significantly greater
change of ruminal E. coli concentrations from prechlorate levels (E. coli; fasted and non-fasted, 30 mM sodium chlorate, by 10 hours after chlorate administration): decreased only slightly
Mean ± SD (n = 2) fecal EC concentration (E. coli; fasted, 0 h post treatment): 5.29 ± 0.24 log base 10 CFU/g
Mean ± SD (n = 2) ruminal EC concentration (E. coli; fasted, 0 h post treatment): 3.62 ± 2.29 log base 10 CFU/g
Mean ± SD (n = 2) ruminal EC concentration (E. coli; fasted, 10 h post treatment): 3.27 ± 3.21 log base 10 CFU/g
Mean ± SD (n = 2) fecal EC concentration (E. coli; fasted, 24 h post treatment): 2.33 ± 1.24 log base 10 CFU/g
Mean ± SD (n = 2) ruminal EC concentration (E. coli; fasted, 24 h post treatment): 2.40 ± 0.20 log base 10 CFU/g
Mean ± SD (n = 2) fecal EC concentration (E. coli; nonfasted, 0 h post treatment): 5.19 ± 1.68 log base 10 CFU/g
Mean ± SD (n = 2) ruminal EC concentration (E. coli; nonfasted, 0 h post treatment): 3.66 ± 1.76 log base 10 CFU/g
Mean ± SD (n = 2) ruminal EC concentration (E. coli; nonfasted, 10 h post treatment): 2.22 ± 3.14 log base 10 CFU/g
Mean ± SD (n = 2) fecal EC concentration (E. coli; nonfasted, 24 h post treatment): 2.65 ± 1.91 log base 10 CFU/g
Mean ± SD (n = 2) ruminal EC concentration (E. coli; nonfasted, 24 h post treatment): 2.28 ± 1.38 log base 10 CFU/g
effect on the most probable number of culturable anaerobes (culturable anaerobes): little effect
